# Results from patent US12577252B2, “Drug for the treatment of diseases caused by bacteria” (priority 2020, dated 2026).
# Experiments:
# [1] = test system: C. ulcerans; experiment: MIC by serial dilution (CLSI), firmicutes bacteria; assay type: cell-based, Corynebacterium ulcerans; settings: fresh clinical isolate
# Description: (§1) Determination of the antimicrobial activity of substances was carried out on dense and liquid nutrient media. To assess the minimum inhibitory concentration (MIC), the serial dilution method was used, according to the recommendations of CLSI (Clinical Laboratories and Standards Institute, formerly National Committee for Clinical Laboratory Standards) (Clinical Laboratories and Standards Institute. Methods for Dilution Antimicrobial Susceptibility Tests for Bacteria That Grow Aerobically; Approved Standard—Seventh Edition Document M7-A7 CLSI, Wayne, Pa., 2006; Clinical Laboratories and Standards Institute).
# (§2) The assessment of the antimicrobial activity of substances against firmicute bacteria was performed on fresh clinical isolates of strains of Streptococcus pyogenes, Streptococcus mitis, Bacillus subtilis, Bacillus cereus, Corynebacterium ulcerans, Micrococcus luteus.
# [2] = test system: L. monocytogenes; experiment: MIC by serial dilution (CLSI), firmicutes bacteria; assay type: cell-based
# [3] = test system: H. influenzae; experiment: MIC, gracilicutes and wall-less bacteria; assay type: cell-based, Haemophilus influenzae; settings: fresh clinical isolate, Table 2
# Description: as §1, with “Institute). The study of the effect on strains was performed on fresh clinical isolates of Haemophilus influenzae, Neisseria meningitides, Ureaplasma urealyticum strains, as well as on the Escherichia coli ATCC29592 strain.” for “Institute).”
# [4] = test system: S. mitis; experiment: MIC by serial dilution (CLSI), firmicutes bacteria; assay type: cell-based, Streptococcus mitis; settings: fresh clinical isolate
# Description: as §1, §2
# [5] = test system: U. urealyticum; experiment: MIC, gracilicutes and wall-less bacteria; assay type: cell-based, Ureaplasma urealyticum; settings: fresh clinical isolate
# Description: as §1, with “Institute). The study of the effect on strains was performed on fresh clinical isolates of Haemophilus influenzae, Neisseria meningitides, Ureaplasma urealyticum strains, as well as on the Escherichia coli ATCC29592 strain.” for “Institute).”
# [6] = test system: S pyogenes; experiment: MIC by serial dilution (CLSI), firmicutes bacteria; assay type: cell-based, Streptococcus pyogenes; settings: fresh clinical isolate
# Description: as §1, §2
# [7] = test system: S. aureus ANCC29213 biofilms; experiment: Survival of bacteria in biofilms (CFU count); assay type: cell-based, Staphylococcus aureus; settings: 10 μg/ml; for Number of CFU: 24 h biofilm, incubated 24 hours at 37° C.
# Description: S. aureus ANCC29213 bacteria were grown in a 24-well plateau in LB medium for 24 hours at 37° C. After that, Compound 1a and lincomycin (8 wells for each preparation and control without preparations) were added to the wells at final concentrations of 10 μg/ml and incubated for 24 hours at 37° C. After incubation, the medium was removed, the biofilms were washed with a sterile solution of isotonic sodium chloride, the biofilms were removed from the bottom of the wells, resuspended in isotonic sodium chloride solution, and the number of colony forming units (CFU) was determined by the method of serial dilutions.
# [8] = test system: M. lutteus; experiment: MIC by serial dilution (CLSI), firmicutes bacteria; assay type: cell-based, Micrococcus luteus; settings: fresh clinical isolate
# Description: as §1, §2
# [9] = test system: Escherichia coli ATCC29592; experiment: MIC, gracilicutes and wall-less bacteria; assay type: cell-based; settings: E. coli ATCC29592
# Description: as §1, with “Institute). The study of the effect on strains was performed on fresh clinical isolates of Haemophilus influenzae, Neisseria meningitides, Ureaplasma urealyticum strains, as well as on the Escherichia coli ATCC29592 strain.” for “Institute).”
# [10] = test system: S. aureus VT-A-199; experiment: MIC, S. aureus strains with multiple resistance; assay type: cell-based, Staphylococcus aureus; settings: VT-A-199, MRSA strain, clinical isolate
# Description: as §1
# (§3) The study of the effect of Compound 1a on strains with multiple resistance to existing antibiotics was performed on fresh clinical isolates of strains: S. aureus VT-V-18, S. aureus VT-E-25 S. aureus VT-A-199 and S. aureus VT-P-82, as well as S. aureus strain American Type Culture Collection (Rockville, Md.) and strains S. aureus SA77 and S. aureus SA85,
# [11] = test system: S. aureus VT-E-25; experiment: MIC, S. aureus strains with multiple resistance; assay type: cell-based, Staphylococcus aureus; settings: VT-E-25, MRSA strain, clinical isolate
# Description: as §1, §3
# [12] = test system: S. aureus SA77; experiment: MIC, S. aureus strains with multiple resistance; assay type: cell-based, Staphylococcus aureus; settings: SA77, VRSA strain
# Description: as §1, §3
# [13] = test system: S. aureus VT-P-82; experiment: MIC, S. aureus strains with multiple resistance; assay type: cell-based, Staphylococcus aureus; settings: VT-P-82, MRSA strain, clinical isolate
# Description: as §1, §3
# [14] = test system: S. aureus VT-V-18; experiment: MIC, S. aureus strains with multiple resistance; assay type: cell-based, Staphylococcus aureus; settings: VT-V-18, MRSA strain, clinical isolate
# Description: as §1, §3
# [15] = test system: S. aureus SA85; experiment: MIC, S. aureus strains with multiple resistance; assay type: cell-based, Staphylococcus aureus; settings: SA85, VRSA strain
# Description: as §1, §3
# [16] = test system: B. cereus; experiment: MIC by serial dilution (CLSI), firmicutes bacteria; assay type: cell-based, Bacillus cereus; settings: fresh clinical isolate
# Description: as §1, §2
# [17] = test system: B. subtilis; experiment: MIC by serial dilution (CLSI), firmicutes bacteria; assay type: cell-based, Bacillus subtilis; settings: fresh clinical isolate
# Description: as §1, §2
# [18] = test system: Staphylococcus aureus ATCC 38591; experiment: Acute generalized infection in C57BL6 mice, death of mice; assay type: in vivo; settings: 10 mice
# Description: To study the chemotherapeutic efficacy, a model of acute generalized infection in small animals was used. C57BL6 mice were intraperitoneally infected with Staphylococcus aureus ATCC 38591 at a dose of 1×10^8 microbial cells. The infectious dose was established in preliminary studies. Mice infected with the same dose of microbial culture but not treated served as controls.
# The preparations were dissolved in an isotonic sodium chloride solution and substance 1a or Lincomycin was administered. 2 hours after infection, the drugs were administered orally daily at doses of 10 to 100 mg/kg, 2 times a day.
# The death of mice was taken into account daily for 7 days.
# [19] = test system: H. influenzae; experiment: MIC of 1a and its combinations with antimicrobials, serial dilutions; assay type: cell-based, Haemophilus influenzae; settings: liquid nutrient medium, substance alone
# Description: We used a strain of H. influenzae grown on a liquid nutrient medium. The minimum inhibitory concentration was determined by the method of serial dilutions.
# [20] = test system: S. aureus; experiment: Clinical treatment of tonsillitis, eradication of the pathogen; assay type: in vivo, Staphylococcus aureus; settings: for Eradication, %: S. aureus tonsillitis patients
# Description: (§4) This pathology was chosen by us as one of the above lists to confirm the effectiveness and practical applicability of the claimed compound. The study was performed on two groups of patients, totaling 138 people, who received the drug enterally twice a day at doses from 500 mg to 2000 mg. The compound was administered as a pharmaceutical composition containing Compound 1a in acetate form in an isotonic solution of a pharmaceutically acceptable sodium chloride carrier.
# [21] = test system: S. aureus ATCC 29213; experiment: MIC by serial dilution (CLSI), S. aureus ATCC 29213; assay type: cell-based, Staphylococcus aureus
# [22] = test system: N. meningitides; experiment: MIC, gracilicutes and wall-less bacteria; assay type: cell-based, Neisseria meningitides; settings: fresh clinical isolate
# Description: as §1, with “Institute). The study of the effect on strains was performed on fresh clinical isolates of Haemophilus influenzae, Neisseria meningitides, Ureaplasma urealyticum strains, as well as on the Escherichia coli ATCC29592 strain.” for “Institute).”
# [23] = test system: S. pyogenes; experiment: Clinical treatment of tonsillitis, eradication of the pathogen; assay type: in vivo, Streptococcus pyogenes; settings: for Eradication, %: S. pyogenes tonsillitis patients
# Description: as §4
# [24] = test system: various strains of S. aureus; experiment: Effects on various strains of S. aureus (MRSA, VRSA, MSSA), overall; assay type: cell-based, Staphylococcus aureus; settings: S. aureus strains of Table 3
# Description: as §1, §3
# [25] = test system: methicillin- and vancomycin-resistant strains of Staphylococcus aureus and Streptococcus spp; settings: literature statement; cited from earlier work
# [26] = 10 mg/kg orally 2 times a day, day 2
# [27] = 10 mg/kg orally 2 times a day, day 4
# [28] = 20 mg/kg orally 2 times a day, day 3
# [29] = 20 mg/kg orally 2 times a day, day 4
# [30] = Haemophilus influenzae, read-out: MIC
smiles,measurement,setting,value
"CC(=O)[O-].O=c1[nH]c(=O)c2cc3cc(Br)cc(Br)c3[o+]c2[nH]1 [Compound 1a, 7,9-dibromo-2,4-dioxo-1,2,3,4-tetrahydrochromeno[2,3-d]-pyrimidinium-10 acetate]",MIC,[1],0.5 µg/mL
same,MIC,[2],1.0 µg/mL
same,MIC,[3],10.0 µg/mL
same,MIC,[4],0.1 µg/mL
same,MIC,[5],10.0 µg/mL
same,MIC,[6],0.1 µg/mL
same,reduction of the number of bacteria capable of growth in biofilms,[7]; 24 hours,1000 times
same,Number of CFU,[7],4.0 ± 1.0 × 10^5 CFU
same,MIC,[8],1.0 µg/mL
same,MIC,[9],20.0 µg/mL
same,MIC,[10],1.0 µg/mL
same,MIC,[11],1.0 µg/mL
same,MIC,[12],0.5 µg/mL
same,MIC,[13],2.0 µg/mL
same,MIC,[14],0.5 µg/mL
same,MIC,[15],1.0 µg/mL
same,MIC,[16],1.0 µg/mL
same,MIC,[17],1.0 µg/mL
same,Mice death,[18]; [26],1
same,Mice death,[18]; [27],1
same,Mice death,"[18]; 10 mg/kg orally 2 times a day, day 5",2
same,Mice death,"[18]; 10 mg/kg orally 2 times a day, day 6",1
same,Mice death,[18]; [28],1
same,Mice death,[18]; [29],1
same,Mice death,"[18]; 20 mg/kg orally 2 times a day, day 5",2
same,MIC,[19],10.0 µg/mL
same,"Eradication, %","[20]; day 4, enterally twice a day",85.14%
same,"Eradication, %",[20]; day 8,91.89%
same,"Eradication, %",[20]; day 14,94.59%
same,"Eradication, Number of patients","[20]; day 4, enterally twice a day",63
same,"Eradication, Number of patients",[20]; day 8,68
same,"Eradication, Number of patients",[20]; day 14,70
same,MIC,"[21]; ATCC 29213, strain MSSA, Table 3",0.5 µg/mL
same,MIC,"[21]; S. aureus ATCC 29213, Table 1",0.5 µg/mL
same,MIC,[22],10.0 µg/mL
same,"Eradication, %",[23]; day 4,94.37%
same,"Eradication, %",[23]; day 8,95.77%
same,"Eradication, %",[23]; day 14,95.77%
same,"Eradication, Number of patients",[23]; day 4,67
same,"Eradication, Number of patients",[23]; day 8,68
same,"Eradication, Number of patients",[23]; day 14,68
same,Resistance,[24],Not detected
same,efficacy on methicillin/vancomycin-resistant versus susceptible strains,[24],did not differ
"O=C([O-])CCC(=O)[O-].O=c1[nH]c(=O)c2cc3cc(Br)cc(Br)c3[o+]c2[nH]1.O=c1[nH]c(=O)c2cc3cc(Br)cc(Br)c3[o+]c2[nH]1 [Compound 1b, 7,9-dibromo-2,4-dioxo-1,2,3,4-tetrahydrochromeno[2,3-d]-pyrimidinium-10 succinate]",MIC,[1],2.0 µg/mL
same,MIC,[2],4.0 µg/mL
same,MIC,[3],20.0 µg/mL
same,MIC,[4],2.0 µg/mL
same,MIC,[5],20.0 µg/mL
same,MIC,[6],2.0 µg/mL
same,MIC,[8],2.0 µg/mL
same,MIC,[9],30.0 µg/mL
same,MIC,[16],4.0 µg/mL
same,MIC,[17],2.0 µg/mL
same,MIC,"[21]; S. aureus ATCC 29213, Table 1",1.0 µg/mL
same,MIC,[22],20.0 µg/mL
C[C@H]1COc2c(N3CCN(C)CC3)c(F)cc3c(=O)c(C(=O)O)cn1c23 [Levofloxacin],MIC,[19]; [30],0.05 µg/mL
CCC[C@@H]1C[C@@H](C(=O)N[C@@H]([C@H]2O[C@H](SC)[C@H](O)[C@@H](O)[C@H]2O)[C@@H](C)O)N(C)C1 [Lincomycin],change of the number of CFUs in biofilms,[7]; 24 hours,does not change the number of CFUs
same,Number of CFU,[7],2.0 ± 1.0 × 10^8 CFU
same,effect on MRSA and VRSA strains,[25],no effect
same,Mice death,[18]; [26],2
same,Mice death,[18]; [27],1
same,Mices death,"[18]; 10 mg/kg orally 2 times a day, fifth day, head printed 1",2
same,Mices death,"[18]; 10 mg/kg orally 2 times a day, sixth day column, head printed 2",1
same,Mice death,[18]; [28],1
same,Mice death,[18]; [29],1
same,Mices death,"[18]; 20 mg/kg orally 2 times a day, fifth day, head printed 1",3
same,Mices death,"[18]; 50 mg/kg orally 2 times a day, day 3",1
same,Mices death,"[18]; 50 mg/kg orally 2 times a day, day 4",1
same,Mices death,"[18]; 50 mg/kg orally 2 times a day, fifth day, head printed 1",2
"CC1(C)S[C@@H]2[C@H](NC(=O)COc3ccccc3)C(=O)N2[C@H]1C(=O)O [Phenoxymethylpenicillin, reference compound]","Eradication, %","[20]; day 4, enterally twice a day",4.11%
same,"Eradication, %",[20]; day 8,9.59%
same,"Eradication, %",[20]; day 14,13.70%
same,"Eradication, Number of patients","[20]; day 4, enterally twice a day",3
same,"Eradication, Number of patients",[20]; day 8,7
same,"Eradication, Number of patients",[20]; day 14,10
same,"Eradication, %",[23]; day 4,10.14%
same,"Eradication, %",[23]; day 8,11.59%
same,"Eradication, %",[23]; day 14,13.04%
same,"Eradication, Number of patients",[23]; day 4,7
same,"Eradication, Number of patients",[23]; day 8,8
same,"Eradication, Number of patients",[23]; day 14,9
CN(C)[C@@H]1C(O)=C(C(N)=O)C(=O)[C@@]2(O)C(O)=C3C(=O)c4c(O)cccc4[C@@](C)(O)[C@H]3C[C@@H]12 [Tetracycline],MIC,[19]; [30],2 µg/mL
